Measured values as given in US20180136198A1, “SYNAPTIC VESICLE CYCLING ASSAYS AND SYSTEMS” (priority 2008, published 2018).

What was measured:
Format in all cases: cell-based
[1] = system: rat embryonic cortical neurons; assay: synaptopHluorin fluorescence at whole-well level, Zeiss Axiovert Z1 inverted epifluorescence microscope
From the text: By introduction into a high percentage of neurons plated at high density within a well, synaptopHluorins were used to measure synaptic vesicle cycling at the whole-well, population level. One way synaptopHluorin was introduced into neurons was by viral infection. Viral delivery of synaptopHluorin was used to validate the ability to measure the synaptic vesicle cycle at the population level. Adeno-associated virus (MOI=1000) was used to deliver synaptopHluorin into rat embryonic cortical neurons plated in 96-well optically-clear plastic-bottomed plates (Nunc) at 11 days in vitro. At 21 days in vitro, neurons were imaged on a Zeiss Axiovert Z1 inverted epifluoresence microscope using low magnification optics (10×, 0.45 NA objective) insufficient to resolve individual synapses. Neurons in the presence or absence of external Ca^++ were treated with ionomycin, a calcium ionophore that triggers synaptic vesicle exocytosis and the resulting fluorescence of synaptopHluorin.

[2] = system: Primary rat neuronal cultures; assay: synaptopHluorin fluorescence in 96-well plates on the plate::vision plate reader; conditions: Tyrode's solution, read every 2 seconds for 1 minute
Method: The plate::vision plate reader was evaluated for its ability to record the synaptic vesicle cycle in multiple wells in parallel. Primary rat neuronal cultures in 96-well plates were infected with the synaptopHluorin adeno-associated virus at 12 days in vitro. Culture medium was replaced with Tyrode's solution plus or minus external Ca^++. A baseline recording of fluorescence was measured in the entire plate on the plate::vision plate reader. Then, ionomycin was added to all wells, and fluorescence changes were measured every 2 seconds for 1 minute. […] These changes were similar to those observed when a similar experiment was performed on the Zeiss inverted epifluorescence microscope.

[3] = system: rat embryonic cortical neurons; assay: sypHy fluorescence (synaptic vesicle exocytosis) on Fluoroskan Ascent FL plate reader; conditions: 10 uM; GFP-fluorescence recorded at 5 Hz; 33 DIV
Method: It was determined that a Fluoroskan Ascent FL plate reader is capable of measuring aspects of synaptic vesicle cycling, e.g., exocytosis, in neuronal cells expressing a synaptophysin-pHluorin reporter. Rat embryonic cortical neurons were cultured in Greiner uClear 96-well plates. At 7 DIV, cultures were infected with sypHy-AAV. At 33 DIV, culture media was replaced with assay buffer, the plate was loaded onto the Fluoroskan Ascent FL plate reader, and GFP-fluorescence was recorded at 5 Hz. This plate reader uses a photomultiplier tube (PMT) to measure the fluorescence levels in a single well at a time. A baseline fluorescence level was determined, ionomycin (10 uM) was added to induce synaptic vesicle exocytosis, and the resulting change in fluorescence was measured on by plate reader. […] (FIG. 27.)

C[C@H](CCC(=O)O)C[C@H](C)C[C@H](C)C(=O)/C=C(\O)[C@H](C)C[C@H](C)C/C=C/[C@@H](C)[C@@H](O)[C@@H](C)[C@@H](O)C[C@@H]1CC[C@@](C)([C@H]2CC[C@@](C)([C@@H](C)O)O2)O1 [ionomycin]
increase in synaptopHluorin signal ([1]; in the absence of external Ca++): about 3%
increase in synaptopHluorin signal ([1]; in the presence of external Ca++): approximately 20%
increase in fluorescence ([2]; absence of Ca++): < 5%
increase in fluorescence ([2]; in the presence of Ca++): about 20%
increase in fluorescence intensity [3]: ~15%
